Test results reported in patent publication US20030171329A1, “Stable compositions comprising tezacitabine” (priority 2002, published 2003).
Read-outs that look alike come from different tables or passages of the source.

Legend:
[1] = Experimental: In this study the stabilty of FMdC glutamate and glycine buffers at pH 8.5 to 9.5 was evaluated at various storage conditions (5°, 25°, 35°, 45°, and 55° C.). FMdC solutions were made up at 1 mg/mL in 7.1 mg/mL monosodium glutamate monohydrate (38 mM) or 2.8 mg/mL glycine (37 mM) and pH adjusted to target with sodium hydroxide. Solution samples were placed in stoppered glass vials and stored at the various temperatures. […] Detention was by UV at 268 nm.
The higher-temperature data can be evaluated further by Arrhenius analysis to predict shelf lives at lower temperatures. First-order rate constants are determined by fitting the concentration and time data to an equation of the form C(t)=C(0)·exp (−k·t), where C(t) is the concentration at time t, C(0) is the concentration at time 0, t is the time, and k is the first-order rate constant. The rate constants are in turn fitted to an equation of the form k (T)=A·exp (−Ea/RT), where k(T) is the rate constant at temperature T, Ea is the energy of activation, R is the gas constant, T is the absolute temperature (in ° K), and A is a constant.

[2] = human patients with solid tumors, Phase I clinical trials; cited from earlier work
[3] = Glutamate pH 8.5 buffer, 5° C., 24 weeks
[4] = Glutamate pH 8.5 buffer, 25° C., 0 weeks
[5] = Glutamate pH 8.5 buffer, 25° C., 4 weeks
[6] = Glutamate pH 8.5 buffer, 25° C., 16 weeks
[7] = Glutamate pH 8.5 buffer, 25° C., 24 weeks
[8] = Glutamate pH 8.5 buffer, 35° C., 0 weeks
[9] = Glutamate pH 8.5 buffer, 35° C., 4 weeks
[10] = Glutamate pH 8.5 buffer, 35° C., 16 weeks
[11] = Glutamate pH 8.5 buffer, 35° C., 24 weeks
[12] = Glutamate pH 8.5 buffer, 45° C., 0 weeks
[13] = Glutamate pH 8.5 buffer, 45° C., 4 weeks
[14] = Glutamate pH 9.0 buffer, 5° C., 24 weeks
[15] = Glutamate pH 9.0 buffer, 25° C., 0 weeks
[16] = Glutamate pH 9.0 buffer, 25° C., 4 weeks
[17] = Glutamate pH 9.0 buffer, 25° C., 16 weeks
[18] = Glutamate pH 9.0 buffer, 25° C., 24 weeks
[19] = Glutamate pH 9.0 buffer, 35° C., 0 weeks
[20] = Glutamate pH 9.0 buffer, 35° C., 4 weeks
[21] = Glutamate pH 9.0 buffer, 35° C., 16 weeks
[22] = Glutamate pH 9.0 buffer, 35° C., 24 weeks
[23] = Glutamate pH 9.0 buffer, 45° C., 0 weeks
[24] = Glutamate pH 9.0 buffer, 45° C., 4 weeks
[25] = Glutamate pH 9.5 buffer, 5° C., 24 weeks
[26] = Glutamate pH 9.5 buffer, 25° C., 0 weeks
[27] = Glutamate pH 9.5 buffer, 25° C., 4 weeks
[28] = Glutamate pH 9.5 buffer, 25° C., 16 weeks
[29] = Glutamate pH 9.5 buffer, 25° C., 24 weeks
[30] = Glutamate pH 9.5 buffer, 35° C., 0 weeks
[31] = Glutamate pH 9.5 buffer, 35° C., 4 weeks
[32] = Glutamate pH 9.5 buffer, 35° C., 16 weeks
[33] = Glutamate pH 9.5 buffer, 35° C., 24 weeks
[34] = Glutamate pH 9.5 buffer, 45° C., 0 weeks
[35] = Glutamate pH 9.5 buffer, 45° C., 4 weeks
[36] = Glycine pH 9.0 buffer, 5° C., 24 weeks
[37] = Glycine pH 9.0 buffer, 25° C., 0 weeks
[38] = Glycine pH 9.0 buffer, 25° C., 4 weeks
[39] = Glycine pH 9.0 buffer, 25° C., 16 weeks
[40] = Glycine pH 9.0 buffer, 25° C., 24 weeks
[41] = Glycine pH 9.0 buffer, 35° C., 0 weeks
[42] = Glycine pH 9.0 buffer, 35° C., 16 weeks
[43] = Glycine pH 9.0 buffer, 35° C., 24 weeks
[44] = Glycine pH 9.0 buffer, 45° C., 0 weeks

In the case of `Nc1ccn([C@@H]2O[C@H](CO)[C@@H](O)/C2=C\F)c(=O)n1` [FMdC, (E)-2′-deoxy-2′-(fluoromethylene)cytidine], the stability in words ([1]; 1 mg/mL) is reported as “stable for almost 6 months”, the “predicted first-order rate constant of degradation” value ([1]; 1 mg/mL, pH 9) is reported as 3.0·10^−4 week^−1 and the FMdC ([1]; Glutamate pH 8.5 buffer, 5° C., 12 weeks) is reported as 1.00 mg/mL. The pH ([1]; Glutamate pH 8.5 buffer, 5° C., 16 weeks) was 8.63, the FMdC [1, 3] was 1.00 mg/mL and the pH [1, 3] was 8.66. For the same compound, the FMdC [1, 4] was 1.00 mg/mL, the pH [1, 4] was 8.50 and the FMdC [1, 5] was 1.00 mg/mL. The pH [1, 5] was 8.55, the FMdC [1, 6] was 0.99 mg/mL and the pH [1, 6] was 7.93. For the same compound, the FMdC [1, 7] was 0.99 mg/mL, the pH [1, 7] was 8.64 and the FMdC [1, 8] was 1.00 mg/mL. The pH [1, 8] was 8.50, the FMdC [1, 9] was 1.00 mg/mL and the pH [1, 9] was 8.55. The FMdC [1, 10] was 0.97 mg/mL, the pH [1, 10] was 8.59 and the FMdC [1, 11] was 0.95 mg/mL. The pH [1, 11] was 8.58, the FMdC [1, 12] was 1.00 mg/mL and the pH [1, 12] was 8.50. For the same compound, the FMdC [1, 13] was 0.98 mg/mL, the pH [1, 13] was 8.56 and the FMdC ([1]; Glutamate pH 8.5 buffer, 45° C., 16 weeks) was 0.85 mg/mL. The FMdC ([1]; Glutamate pH 8.5 buffer, 45° C., 24 weeks) was 0.47 mg/mL, the FMdC ([1]; Glutamate pH 8.5 buffer, 55° C., 0 weeks) was 1.00 mg/mL and the FMdC ([1]; Glutamate pH 8.5 buffer, 55° C., 2 weeks) was 0.91 mg/mL. The FMdC ([1]; Glutamate pH 8.5 buffer, 55° C., 4 weeks) was 0.72 mg/mL, the FMdC ([1]; Glutamate pH 8.5 buffer, 55° C., 8 weeks) was 0.03 mg/mL and the FMdC ([1]; Glutamate pH 9.0 buffer, 5° C., 12 weeks) was 1.00 mg/mL. It also gave a pH ([1]; Glutamate pH 9.0 buffer, 5° C., 16 weeks) of 9.10, an FMdC [1, 14] of 1.00 mg/mL and a pH [1, 14] of 9.05. It also gave an FMdC [1, 15] of 1.01 mg/mL, a pH [1, 15] of 9.00 and an FMdC [1, 16] of 1.01 mg/mL. For the same compound, the pH [1, 16] was 9.07, the FMdC [1, 17] was 0.99 mg/mL and the pH [1, 17] was 8.80. The FMdC [1, 18] was 0.99 mg/mL, the pH [1, 18] was 9.09 and the FMdC [1, 19] was 1.01 mg/mL. It also gave a pH [1, 19] of 9.00, an FMdC [1, 20] of 1.01 mg/mL and a pH [1, 20] of 9.06. For the same compound, the FMdC [1, 21] was 0.98 mg/mL, the pH [1, 21] was 9.08 and the FMdC [1, 22] was 0.98 mg/mL. The pH [1, 22] was 9.08, the FMdC [1, 23] was 1.01 mg/mL and the pH [1, 23] was 9.00. It also gave an FMdC [1, 24] of 0.99 mg/mL, a pH [1, 24] of 9.04 and an FMdC ([1]; Glutamate pH 9.0 buffer, 45° C., 16 weeks) of 0.92 mg/mL. It also gave an FMdC ([1]; Glutamate pH 9.0 buffer, 45° C., 24 weeks) of 0.88 mg/mL, an FMdC ([1]; Glutamate pH 9.0 buffer, 55° C., 0 weeks) of 1.01 mg/mL and an FMdC ([1]; Glutamate pH 9.0 buffer, 55° C., 2 weeks) of 0.96 mg/mL. It also gave an FMdC ([1]; Glutamate pH 9.0 buffer, 55° C., 4 weeks) of 0.91 mg/mL, an FMdC ([1]; Glutamate pH 9.0 buffer, 55° C., 8 weeks) of 0.78 mg/mL and an FMdC ([1]; Glutamate pH 9.5 buffer, 5° C., 12 weeks) of 1.00 mglmL. It also gave a pH ([1]; Glutamate pH 9.5 buffer, 5° C., 16 weeks) of 9.54, an FMdC [1, 25] of 1.01 mglmL and a pH [1, 25] of 9.57. For the same compound, the FMdC [1, 26] was 1.00 mglmL, the pH [1, 26] was 9.50 and the FMdC [1, 27] was 1.00 mglmL. It also gave a pH [1, 27] of 9.53, an FMdC [1, 28] of 1.00 mglmL and a pH [1, 28] of 9.55. For the same compound, the FMdC [1, 29] was 0.99 mglmL, the pH [1, 29] was 9.57 and the FMdC [1, 30] was 1.00 mglmL. It also gave a pH [1, 30] of 9.50, an FMdC [1, 31] of 1.00 mglmL and a pH [1, 31] of 9.54. It also gave an FMdC [1, 32] of 0.98 mglmL, a pH [1, 32] of 9.59 and an FMdC [1, 33] of 0.97 mglmL. It also gave a pH [1, 33] of 9.62, an FMdC [1, 34] of 1.00 mglmL and a pH [1, 34] of 9.50. The FMdC [1, 35] was 0.99 mglmL, the pH [1, 35] was 9.56 and the FMdC ([1]; Glutamate pH 9.5 buffer, 45° C., 16 weeks) was 0.92 mglmL. It also gave an FMdC ([1]; Glutamate pH 9.5 buffer, 45° C., 24 weeks) of 0.89 mglmL, an FMdC ([1]; Glutamate pH 9.5 buffer, 55° C., 0 weeks) of 1.00 mglmL and an FMdC ([1]; Glutamate pH 9.5 buffer, 55° C., 2 weeks) of 0.97 mglmL. It also gave an FMdC ([1]; Glutamate pH 9.5 buffer, 55° C., 4 weeks) of 0.93 mglmL, an FMdC ([1]; Glutamate pH 9.5 buffer, 55° C., 8 weeks) of 0.82 mglmL and an FMdC ([1]; Glycine pH 9.0 buffer, 5° C., 12 weeks) of 1.01 mg/mL. For the same compound, the pH ([1]; Glycine pH 9.0 buffer, 5° C., 16 weeks) was 9.30, the FMdC [1, 36] was 1.00 mg/mL and the pH [1, 36] was 9.33. The FMdC [1, 37] was 1.00 mg/mL, the pH [1, 37] was 9.00 and the FMdC [1, 38] was 1.01 mg/mL. The pH [1, 38] was 9.33, the FMdC [1, 39] was 1.00 mg/mL and the pH [1, 39] was 9.30. For the same compound, the FMdC [1, 40] was 0.99 mg/mL, the pH [1, 40] was 9.32 and the FMdC [1, 41] was 1.00 mg/mL. For the same compound, the pH [1, 41] was 9.00, the pH ([1]; Glycine pH 9.0 buffer, 35° C., 4 weeks) was 9.32 and the FMdC [1, 42] was 0.98 mg/mL. It also gave a pH [1, 42] of 9.32, an FMdC [1, 43] of 0.97 mg/mL and a pH [1, 43] of 9.31. For the same compound, the FMdC [1, 44] was 1.00 mg/mL, the pH [1, 44] was 9.00 and the FMdC ([1]; Glycine pH 9.0 buffer, 45° C., 4 weeks) was 0.99 mg/mL. The FMdC ([1]; Glycine pH 9.0 buffer, 45° C., 16 weeks) was 0.92 mg/mL, the FMdC ([1]; Glycine pH 9.0 buffer, 45° C., 24 weeks) was 0.88 mg/mL and the FMdC ([1]; Glycine pH 9.0 buffer, 55° C., 0 weeks) was 1.00 mg/mL. For the same compound, the FMdC ([1]; Glycine pH 9.0 buffer, 55° C., 4 weeks) was 0.91 mg/mL, the “shelf-life (time at which 5% degradation would be expected)” value ([1]; pH 9) was “several years” and the tolerability [2] was “well tolerated”.
